Patent US7220822B2, “CD28 mimetics for blocking T cell mediated immune reactions” (The Ohio State University, priority 2000, dated 2007)
Square brackets hold non-standard residues; d marks the D form. Peptide text beside a SMILES is read from it.

Test system: CD4+ splenocytes from Vα4/Vβ8.2 TCR transgenic mice
Assay type: cell-based, mouse
Conditions: 72 h
Description: The in vitro effect of varying concentration of the CD 28 peptide mimetics on CD4+ lymph node cells and spleen cells from transgenic mice bearing the Vα 4 Vβ8.2 TCR specific for MBP Ac 1-11 was determined.
CD4+ T cells were purified from pooled peripheral lymph nodes (inguinal, axillary, brachial, cervical, popliteal), and mesenteric lymph nodes and spleen of 6–8 wk old Vα4/Vβ8.2 TCR transgenic mice by positive selection. Single cell suspensions were prepared by lympholyte M gradient, washed, counted and incubated with magnetic bead conjugated anti-mouse CD4 (L3T4) (Miltenyi Biotech Corporation) followed by positive selection using magnetic selection columns. Purity of the CD4^+ cells was greater than 90% as assessed by staining with FITC labeled anti-mouseVβ8.2 mAb (Pharmingen). During the selection process, T cells maintain a naïve phenotype with no evidence for T cell activation as measured by proliferation in culture. Purified CD4+ T-cells (5×10^4 cells/well) were cultured together with wild type splenocytes from B10.PL mice as APC's (10^5 cells/well) in RPMI 1640 containing 10% FCS, 25 mM HEPES, 2 mM L-glutamine, 50 U/ml penicillin, 50 μg/ml streptomycin, and 5×10–5 M 2-ME in round-bottom 96-well plates and MBP (40 μg/ml) or MBP NAc1-11 (10 μg/ml) or media only in the presence or absence of synthetic CD28 peptide analogues at different concentrations in triplicate wells for 72 h, including a final 18-h pulse with [^3H] thymidine. Cultures were harvested onto glass-fiber mats using a Skatron harvester (Skatron, Sterling, Va.) and were counted by liquid scintillation on LKB Betaplate (LKB, Rockville, Md.). The means of the triplicate were determined and the results are expressed as delta cpm (mean counts per minute of cultures with Ag-mean counts per minute of cultures with medium alone)±SD.

Question: For CC[C@@H](C)[C@@H](NC(C)=O)C(=O)N[C@@H](C(=O)NCC(=O)N[C@H](CC(N)=O)C(=O)N[C@H](CO)C(=O)N[C@H](CCCNC(=N)N)C(=O)N[C@H](CCC(=O)O)C(=O)N[C@H](CC(N)=O)C(=O)N[C@H](CC(=O)O)C(=O)N[C@H](CC(C)C)C(=O)N[C@H](Cc1ccc(O)cc1)C(=O)N1CCC[C@@H]1C(=O)N1CCC[C@@H]1C(=O)N1CCC[C@@H]1C(=O)N[C@H](Cc1ccc(O)cc1)C(=O)N[C@H](CCSC)C(=O)N[C@H](Cc1ccccc1)C(=O)N[C@H](CCC(=O)O)C(=O)N[C@@H](C(=O)N[C@H](CCCCN)C(N)=O)[C@H](C)CC)[C@H](C)O [RI CD28] (Ac-[dI][dT]G[dN][dS][dR][dE][dN][dD][dL][dY][dP][dP][dP][dY][dM][dF][dE][dI][dK]-NH2), which “maximum inhibition of proliferative response” value is on record?
Answer: Its value is 42%.
